Source: patent publication EP4810052A2, “HCRHR2 SELECTIVE POLYPEPTIDES” (Gubra A/S, priority 2023, dated 2026)
Read-outs that look alike come from different tables or passages of the source. Starred links: 1 amine or outer side, 2 acyl side, 3 side chain; linkers in the order of their positions; H or OH if unused. Non-standard residues stand in square brackets, D forms with d. Residues, ends and D or L forms follow the SMILES beside them. Groups on a side chain read outwards from the residue. *: point of attachment. C20 diacid = O=C(O)CCCCCCCCCCCCCCCCCCC(=O)*; γGlu = O=C(O)[C@H](CCC(=O)[*:2])N[*:1]; Nle = CCCC[C@H](N)C(=O)O; AEEA = NCCOCCOCC(=O)O

Assays:
[1] = target: T1, hCRHR2 (Homo sapiens, UniProt Q13324); test: HTRF cAMP assay, determination of hCRHR2 potency (peptide libraries 5 conc., purified peptides 11 conc.); assay type: cell-based
T1 sequence (Q13324 1-411): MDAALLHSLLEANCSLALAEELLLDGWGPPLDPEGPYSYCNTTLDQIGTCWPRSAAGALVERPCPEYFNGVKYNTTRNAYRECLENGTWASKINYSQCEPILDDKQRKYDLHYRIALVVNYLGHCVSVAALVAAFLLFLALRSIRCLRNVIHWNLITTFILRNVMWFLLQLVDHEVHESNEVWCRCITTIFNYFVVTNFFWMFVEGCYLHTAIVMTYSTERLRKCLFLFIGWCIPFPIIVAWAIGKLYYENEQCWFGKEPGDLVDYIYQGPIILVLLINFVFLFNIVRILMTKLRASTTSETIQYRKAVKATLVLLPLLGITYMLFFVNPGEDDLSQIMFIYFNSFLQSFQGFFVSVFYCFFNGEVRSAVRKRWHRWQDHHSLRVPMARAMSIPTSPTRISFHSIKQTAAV
Outline: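 Cells: CHO-K1/hCRHR2 stable clone, suspension, freshly thawed. Readout: competitive TR-FRET, anti-cAMP cryptate vs cAMP-d2. Analysis: sigmoid variable-slope nonlinear regression → EC50.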

[2] = target: T2, hCRHR1 (Homo sapiens, UniProt P34998); test: HTRF cAMP assay, determination of hCRHR1 potency (peptide libraries 5 conc., purified peptides 11 conc.); assay type: cell-based
T2 sequence (P34998 24-415): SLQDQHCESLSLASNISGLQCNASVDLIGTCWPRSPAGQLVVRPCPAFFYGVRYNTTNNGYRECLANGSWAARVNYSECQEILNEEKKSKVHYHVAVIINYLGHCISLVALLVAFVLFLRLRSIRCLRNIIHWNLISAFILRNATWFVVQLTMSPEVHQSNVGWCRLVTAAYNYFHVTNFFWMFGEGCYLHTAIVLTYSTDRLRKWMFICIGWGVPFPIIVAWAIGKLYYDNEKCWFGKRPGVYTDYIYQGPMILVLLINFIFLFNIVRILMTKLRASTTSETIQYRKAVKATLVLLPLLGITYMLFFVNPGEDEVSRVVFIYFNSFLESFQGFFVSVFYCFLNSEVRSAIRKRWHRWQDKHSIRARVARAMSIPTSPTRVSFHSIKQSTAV
Outline: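 Cellular cAMP was read by time-resolved FRET between d2-labelled cAMP and cryptate anti-cAMP antibody. The cells were freshly thawed suspension CHO-K1 cells stably expressing human CRHR1.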

[3] = Table 3, matched molecular pairs X^38 L vs Nle, peptide library of Example 4, read-out: hCRHR2 pEC50 (converted)
[4] = Table 3, matched molecular pairs X^38 L vs Nle, peptide library of Example 4, read-out: hCRHR1 pEC50 (converted)
[5] = library peptides, matched molecular pairs L vs Nle in position X^38, read-out: Potency hCRHR2 pEC50 (converted)
[6] = library peptides, matched molecular pairs L vs Nle in position X^38, read-out: Potency hCRHR1 pEC50 (converted)

| Compound | EC50 [1, 3] [nM] | EC50 [2, 4] [nM] | EC50 [1, 5] [nM] | EC50 [2, 6] [nM] | other results |
| --- | --- | --- | --- | --- | --- |
| CC[C@H](C)[C@H](N)C(=O)N[C@H](C(=O)N[C@@H](CC(C)C)C(=O)N[C@@H](CO)C(=O)N[C@@H](CC(C)C)C(=O)N[C@@H](CC(=O)O)C(=O)N[C@H](C(=O)N1CCC[C@H]1C(=O)N[C@H](C(=O)NCC(=O)N[C@@H](CC(C)C)C(=O)N[C@@H](CC(C)C)C(=O)N[C@@H](CCC(N)=O)C(=O)N[C@H](C(=O)N[C@@H](CC(C)C)C(=O)N[C@@H](CC(C)C)C(=O)N[C@@H](CCC(=O)O)C(=O)N[C@@H](CCC(N)=O)C(=O)N[C@@H](C)C(=O)N[C@@H](CCCNC(=N)N)C(=O)N[C@@H](C)C(=O)N[C@@H](CCC(=O)O)C(=O)N[C@@H](CO)C(=O)N[C@@H](C)C(=O)N[C@@H](CCCNC(=N)N)C(=O)N[C@@H](CCC(=O)O)C(=O)N[C@@H](CCC(N)=O)C(=O)N[C@@H](C)C(=O)N[C@@H](CCCCNC(=O)COCCOCCNC(=O)COCCOCCNC(=O)CC[C@H](NC(=O)CC[C@H](NC(=O)CCCCCCCCCCCCCCCCCCC(=O)O)C(=O)O)C(=O)O)C(=O)N[C@H](C(=O)N[C@@H](CC(N)=O)C(=O)N[C@@H](C)C(=O)N[C@@H](CCC(=O)O)C(=O)N[C@H](C(=O)N[C@@H](CC(C)C)C(=O)N[C@@H](C)C(=O)N[C@@H](CCC(=O)O)C(=O)N[C@H](C(N)=O)C(C)C)[C@@H](C)CC)[C@@H](C)O)[C@@H](C)CC)[C@@H](C)CC)C(C)C)C(C)C [SEQ ID NO: 41] (H-IVLSLDVPIGLLQILLEQARAESAREQAK([AEEA-AEEA-γGlu-γGlu-C20 diacid])TNAEILAEV-NH2) | 0.631 | 15800 | – | – | – |
| CCCC[C@H](NC(=O)[C@@H](NC(=O)[C@H](CCC(=O)O)NC(=O)[C@H](C)NC(=O)[C@H](CC(N)=O)NC(=O)[C@@H](NC(=O)[C@H](CCCCNC(=O)COCCOCCNC(=O)COCCOCCNC(=O)CC[C@H](NC(=O)CC[C@H](NC(=O)CCCCCCCCCCCCCCCCCCC(=O)O)C(=O)O)C(=O)O)NC(=O)[C@H](C)NC(=O)[C@H](CCCNC(=N)N)NC(=O)[C@H](CCC(=O)O)NC(=O)[C@H](CCCNC(=N)N)NC(=O)[C@H](C)NC(=O)[C@H](C)NC(=O)[C@H](CCC(N)=O)NC(=O)[C@H](C)NC(=O)[C@H](CCCNC(=N)N)NC(=O)[C@H](C)NC(=O)[C@H](CCC(N)=O)NC(=O)[C@H](CCC(=O)O)NC(=O)[C@H](CC(C)C)NC(=O)[C@H](CC(C)C)NC(=O)[C@@H](NC(=O)[C@H](CCC(N)=O)NC(=O)[C@H](CC(C)C)NC(=O)[C@H](CC(C)C)NC(=O)CNC(=O)[C@@H](NC(=O)[C@@H]1CCCN1C(=O)[C@@H](NC(=O)[C@H](CC(=O)O)NC(=O)[C@H](CC(C)C)NC(=O)[C@H](CO)NC(=O)[C@H](CC(C)C)NC(=O)[C@@H](NC(=O)[C@@H](N)[C@@H](C)CC)C(C)C)C(C)C)[C@@H](C)CC)[C@@H](C)CC)[C@@H](C)O)[C@@H](C)CC)C(=O)N[C@@H](C)C(=O)N[C@@H](CCC(=O)O)C(=O)N[C@H](C(N)=O)C(C)C [compound 49] (H-IVLSLDVPIGLLQILLEQARAQAARERAK([AEEA-AEEA-γGlu-γGlu-C20 diacid])TNAEI[Nle]AEV-NH2) | – | – | 0.126 | 3160 | – |
| CC[C@H](C)[C@H](N)C(=O)N[C@H](C(=O)N[C@@H](CC(C)C)C(=O)N[C@@H](CO)C(=O)N[C@@H](CC(C)C)C(=O)N[C@@H](CC(=O)O)C(=O)N[C@H](C(=O)N1CCC[C@H]1C(=O)N[C@H](C(=O)NCC(=O)N[C@@H](CC(C)C)C(=O)N[C@@H](CCCCNC(=O)COCCOCCNC(=O)COCCOCCNC(=O)CC[C@H](NC(=O)CC[C@H](NC(=O)CCCCCCCCCCCCCCCCCCC(=O)O)C(=O)O)C(=O)O)C(=O)N[C@@H](CCC(N)=O)C(=O)N[C@H](C(=O)N[C@@H](CC(C)C)C(=O)N[C@@H](CC(C)C)C(=O)N[C@@H](CCC(=O)O)C(=O)N[C@@H](CCC(N)=O)C(=O)N[C@@H](C)C(=O)N[C@@H](CCCNC(=N)N)C(=O)N[C@@H](C)C(=O)N[C@@H](CCCNC(=N)N)C(=O)N[C@@H](C)C(=O)N[C@@H](C)C(=O)N[C@@H](CCCNC(=N)N)C(=O)N[C@@H](CCC(=O)O)C(=O)N[C@@H](CCC(N)=O)C(=O)N[C@@H](C)C(=O)N[C@H](C(=O)N[C@H](C(=O)N[C@@H](CC(N)=O)C(=O)N[C@@H](C)C(=O)N[C@@H](CCC(=O)O)C(=O)N[C@H](C(=O)N[C@@H](CC(C)C)C(=O)N[C@@H](C)C(=O)N[C@@H](CCC(=O)O)C(=O)N[C@H](C(N)=O)C(C)C)[C@@H](C)CC)[C@@H](C)O)[C@@H](C)O)[C@@H](C)CC)[C@@H](C)CC)C(C)C)C(C)C [SEQ ID NO: 261] (H-IVLSLDVPIGLK([AEEA-AEEA-γGlu-γGlu-C20 diacid])QILLEQARARAAREQATTNAEILAEV-NH2) | – | – | – | – | Selectivity ratio (hCRHR1/ hCRHR2) ([1]; hCRHR1-EC50/hCRHR2-EC50): >208; EC50 ([1]; purified peptides, CHO-K1 cells stably expressing hCRHR2, cAMP HTRF, read-out: hCRHR2 EC50): 24 nM; EC50 ([2]; purified peptides, CHO-K1 cells stably expressing hCRHR1, cAMP HTRF, read-out: hCRHR1 EC50): > 5000 nM |

Continued, in another order:

| EC50 [1, 3] [nM] | EC50 [2, 4] [nM] | EC50 [1, 5] [nM] | EC50 [2, 6] [nM] | Compound | other results |
| --- | --- | --- | --- | --- | --- |
| – | – | 0.501 | 25100 | CC[C@H](C)[C@H](N)C(=O)N[C@H](C(=O)N[C@@H](CC(C)C)C(=O)N[C@@H](CO)C(=O)N[C@@H](CC(C)C)C(=O)N[C@@H](CC(=O)O)C(=O)N[C@H](C(=O)N1CCC[C@H]1C(=O)N[C@H](C(=O)NCC(=O)N[C@@H](CC(C)C)C(=O)N[C@@H](CC(C)C)C(=O)N[C@@H](CCC(N)=O)C(=O)N[C@H](C(=O)N[C@@H](CC(C)C)C(=O)N[C@@H](CC(C)C)C(=O)N[C@@H](CCC(=O)O)C(=O)N[C@@H](CCC(N)=O)C(=O)N[C@@H](C)C(=O)N[C@@H](CCCNC(=N)N)C(=O)N[C@@H](C)C(=O)N[C@@H](CCCNC(=N)N)C(=O)N[C@@H](CO)C(=O)N[C@@H](C)C(=O)N[C@@H](CCCNC(=N)N)C(=O)N[C@@H](CCC(=O)O)C(=O)N[C@@H](CCC(N)=O)C(=O)N[C@@H](C)C(=O)N[C@@H](CCCCNC(=O)COCCOCCNC(=O)COCCOCCNC(=O)CC[C@H](NC(=O)CC[C@H](NC(=O)CCCCCCCCCCCCCCCCCCC(=O)O)C(=O)O)C(=O)O)C(=O)N[C@H](C(=O)N[C@@H](CC(N)=O)C(=O)N[C@@H](C)C(=O)N[C@@H](CCC(=O)O)C(=O)N[C@H](C(=O)N[C@@H](CC(C)C)C(=O)N[C@@H](C)C(=O)N[C@@H](CCC(=O)O)C(=O)N[C@H](C(N)=O)C(C)C)[C@@H](C)CC)[C@@H](C)O)[C@@H](C)CC)[C@@H](C)CC)C(C)C)C(C)C [compound 60] (H-IVLSLDVPIGLLQILLEQARARSAREQAK([AEEA-AEEA-γGlu-γGlu-C20 diacid])TNAEILAEV-NH2) | – |
| 0.794 | 6310 | – | – | CC[C@H](C)[C@H](N)C(=O)N[C@H](C(=O)N[C@@H](CC(C)C)C(=O)N[C@@H](CO)C(=O)N[C@@H](CC(C)C)C(=O)N[C@@H](CC(=O)O)C(=O)N[C@H](C(=O)N1CCC[C@H]1C(=O)N[C@H](C(=O)NCC(=O)N[C@@H](CC(C)C)C(=O)N[C@@H](CC(C)C)C(=O)N[C@@H](CCC(N)=O)C(=O)N[C@H](C(=O)N[C@@H](CC(C)C)C(=O)N[C@@H](CC(C)C)C(=O)N[C@@H](CCC(=O)O)C(=O)N[C@@H](CCC(N)=O)C(=O)N[C@@H](C)C(=O)N[C@@H](CCCNC(=N)N)C(=O)N[C@@H](C)C(=O)N[C@@H](CCC(=O)O)C(=O)N[C@@H](C)C(=O)N[C@@H](C)C(=O)N[C@@H](CCCNC(=N)N)C(=O)N[C@@H](CCC(=O)O)C(=O)N[C@@H](CCC(N)=O)C(=O)N[C@@H](C)C(=O)N[C@@H](CCCCNC(=O)COCCOCCNC(=O)COCCOCCNC(=O)CC[C@H](NC(=O)CC[C@H](NC(=O)CCCCCCCCCCCCCCCCCCC(=O)O)C(=O)O)C(=O)O)C(=O)N[C@H](C(=O)N[C@@H](CC(N)=O)C(=O)N[C@@H](C)C(=O)N[C@@H](CCC(=O)O)C(=O)N[C@H](C(=O)N[C@@H](CC(C)C)C(=O)N[C@@H](C)C(=O)N[C@@H](CCC(=O)O)C(=O)N[C@H](C(N)=O)C(C)C)[C@@H](C)CC)[C@@H](C)O)[C@@H](C)CC)[C@@H](C)CC)C(C)C)C(C)C [SEQ ID NO: 25] (H-IVLSLDVPIGLLQILLEQARAEAAREQAK([AEEA-AEEA-γGlu-γGlu-C20 diacid])TNAEILAEV-NH2) | – |
